Reference: publication PMC6386362, “Mechanism and resistance for antimycobacterial activity of a fluoroquinophenoxazine compound” (PLoS ONE, 2019)

Target: T1, Mtb topoisomerase I (MtbTopI) (Mycobacterium tuberculosis, UniProt P9WG49)
T1 construct: gene topA
Assay type: biochemical

T1 sequence (P9WG49 whole entry): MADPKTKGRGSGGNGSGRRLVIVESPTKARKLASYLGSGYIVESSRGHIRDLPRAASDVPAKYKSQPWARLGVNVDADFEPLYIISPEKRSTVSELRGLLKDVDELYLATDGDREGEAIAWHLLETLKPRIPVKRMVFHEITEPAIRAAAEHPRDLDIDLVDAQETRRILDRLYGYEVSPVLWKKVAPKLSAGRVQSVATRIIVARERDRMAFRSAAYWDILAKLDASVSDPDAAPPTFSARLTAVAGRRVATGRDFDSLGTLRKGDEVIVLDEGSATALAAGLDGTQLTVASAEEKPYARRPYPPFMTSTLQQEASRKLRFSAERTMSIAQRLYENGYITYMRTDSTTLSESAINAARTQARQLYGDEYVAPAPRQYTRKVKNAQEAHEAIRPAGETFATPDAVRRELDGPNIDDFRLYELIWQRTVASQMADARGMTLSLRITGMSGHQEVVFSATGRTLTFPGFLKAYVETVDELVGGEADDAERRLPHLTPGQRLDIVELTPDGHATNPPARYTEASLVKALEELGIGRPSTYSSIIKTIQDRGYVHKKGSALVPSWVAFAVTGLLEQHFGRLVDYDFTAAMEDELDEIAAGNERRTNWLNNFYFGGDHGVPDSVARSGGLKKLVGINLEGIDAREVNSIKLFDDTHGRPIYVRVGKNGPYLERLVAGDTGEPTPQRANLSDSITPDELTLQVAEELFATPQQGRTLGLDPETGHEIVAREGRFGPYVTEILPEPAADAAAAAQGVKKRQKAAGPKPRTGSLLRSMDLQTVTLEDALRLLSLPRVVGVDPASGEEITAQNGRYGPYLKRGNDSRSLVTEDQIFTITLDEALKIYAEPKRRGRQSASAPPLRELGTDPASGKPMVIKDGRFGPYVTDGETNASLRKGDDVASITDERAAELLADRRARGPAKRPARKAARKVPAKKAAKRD

Nc1ccc2c(c1)Oc1c(N3CCC(N4CCCCC4)CC3)c(F)cc3c(=O)c(C(=O)O)cn-2c13 [FP-11g]
IC50: 240 ± 40 nM
